Read-outs that look alike come from different tables or passages of the source.
How the values were obtained:
[1] = system: SCC-25 cell line; test: Additional in vitro IC50 tests (Table 3); assay type: cell-based; settings: Homo sapiens
Protocol: (§1) Cell lines were maintained according to the instructions provided by ATCC (https://www.lgcstandards-atcc.org/) in a 5% CO2 humidified incubator maintained at 37° C. temperature. Effects of compounds on cell viability were measured via CellTiter-Glo® luminescent cell viability assay (Promega, Madison, WI, USA) Cells were plated at 1000 cells/well onto a flat-bottomed, white 96 well plate (BRANDplates, cat. no.: 781965). […] After the treatment, medium was removed and CellTiter-Glo® reagent was added. The luminescence signal was recorded using a microplate reader (BioTek Synergy 2 Multi-Mode Reader, BioTek, Winooski, VT, USA).
(§2) Cell viability data (% of untreated control cells) was evaluated with Microsoft Excel. Dose-response curves (using a non-linear regression model, log (inhibitor) vs response, variable slope) were generated and IC50 values were determined using Graph Pad Prism 5.02 software (GraphPad Software, San Diego, CA, USA).

[2] = system: Detroit 562 cell line; test: Additional in vitro IC50 tests (Table 3); assay type: cell-based; settings: Homo sapiens
Protocol: as §1, §2

[3] = system: EBC-1 cell line; test: Additional in vitro IC50 tests (Table 3); assay type: cell-based; settings: Homo sapiens
Protocol: as §1, §2

[4] = system: Fadu cell line; test: Additional in vitro IC50 tests (Table 3); assay type: cell-based; settings: Homo sapiens
Protocol: as §1, §2

[5] = system: H2228 cell line; test: Additional in vitro IC50 tests (Table 3); assay type: cell-based; settings: Homo sapiens, NCI-H2228
Protocol: as §1, §2

[6] = system: Panc1 pancreatic cancer cell line; test: CellTiter-Glo IC50 (Example 19); assay type: cell-based; settings: Homo sapiens, PANC-1, 72 h
Protocol: Some representative imipridones and ONC212 as reference were further tested on the following human malignant cell lines: PC3 and LNCap (prostate carcinoma); BxPC3, MiaPaCa2 and Panc1 (pancreatic cancer); A549, HCC827, H1993 and H520 (lung carcinoma); MDA-MB-453 and MDA-MB-231 (breast cancer) (see Table 2 and FIGS. 1-11).
as §1, §2

[7] = system: EBC-1 (lung, squamous cell carcinoma) cells; test: Cell viability assay, CellTiter-Glo (Example 21); assay type: cell-based, human; settings: 72 h treatment
Protocol: (§3) Effect of the selected compounds on cancer cell viability was measured via CellTiter-Glo® luminescent cell viability assay (Promega, Madison, WI, USA) according to the manufacturer's instructions. Cells were plated onto a flat-bottomed, white 96 well plate (BRANDplates®, cat. no.: 781965). Density of the seeded cells was optimized based on their size and growth rate, as the follows: Panc-1:750 cells/well; DU 145, PC-3, Capan-1, MIA PaCa-2, SCC-25, FaDu and EBC-1: 1000 cells/well; LNCaP, Detroit 562, MDA-MB-231 and MDA-MB-453 1500 cells/well. […] After the treatment, the luminescence signal was recorded using a microplate reader (BioTek Synergy 2 Multi-Mode Reader, BioTek, Winooski, VT, USA). Dose-response curves were generated by GraphPad Prism 8.4.2. software using a non-linear regression model (variable slope, four parameters), (see FIGS. 12-51).

[8] = system: MIA PaCa-2 (pancreas, carcinoma) cells; test: Cell viability assay, CellTiter-Glo (Example 21); assay type: cell-based, human; settings: 72 h treatment
Protocol: as §3

[9] = system: PC-3 (prostate, adenocarcinoma) cells; test: Cell viability assay, CellTiter-Glo (Example 21); assay type: cell-based, human; settings: 72 h treatment
Protocol: as §3

[10] = system: DU 145 (prostate, carcinoma) cells; test: Cell viability assay, CellTiter-Glo (Example 21); assay type: cell-based, human; settings: 72 h
Protocol: as §3

[11] = system: LNCaP (prostate, carcinoma) cells; test: Cell viability assay, CellTiter-Glo (Example 21); assay type: cell-based, human; settings: 72 h
Protocol: as §3

[12] = system: Capan-1 (pancreas, adenocarcinoma) cells; test: Cell viability assay, CellTiter-Glo (Example 21); assay type: cell-based, human; settings: 72 h treatment
Protocol: as §3

[13] = system: Panc-1 (pancreas, carcinoma) cells; test: Cell viability assay, CellTiter-Glo (Example 21); assay type: cell-based, human; settings: 72 h treatment
Protocol: as §3

[14] = system: MDA-MB-453 (breast, carcinoma) cells; test: Cell viability assay, CellTiter-Glo (Example 21); assay type: cell-based, human; settings: 72 h treatment
Protocol: as §3

[15] = system: SCC-25 (tongue, squamous cell carcinoma) cells; test: Cell viability assay, CellTiter-Glo (Example 21); assay type: cell-based, human; settings: 72 h treatment
Protocol: as §3

[16] = system: FaDu (pharynx, squamous cell carcinoma) cells; test: Cell viability assay, CellTiter-Glo (Example 21); assay type: cell-based, human; settings: 72 h treatment
Protocol: as §3

[17] = system: Detroit 562 (pharynx, carcinoma) cells; test: Cell viability assay, CellTiter-Glo (Example 21); assay type: cell-based, human; settings: 72 h treatment
Protocol: as §3

[18] = system: MDA-MB-231 (breast, adenocarcinoma) cells; test: Cell viability assay, CellTiter-Glo (Example 21); assay type: cell-based, human; settings: 72 h treatment
Protocol: as §3

[19] = system: EBC-1 lung cancer cell line; test: High-throughput screening, CellTiter-Glo cell viability assay at 100 nM; assay type: cell-based, human; settings: Homo sapiens, EBC-1, HTS, compounds at 100 nM, 72 h, read-out: cytotoxicity expressed in IC50, EBC-1 (results of High throughput screening)
[20] = system: H2228 lung cancer cell line; test: as above; assay type: cell-based, human; settings: Homo sapiens, NCI-H2228, HTS, compounds at 100 nM, 72 h, read-out: cytotoxicity expressed in IC50, H2228 (results of High throughput screening)
[21] = system: Panc-1 human cell line; test: Cytotoxicity on Panc-1, xCELLigence SP, IC50 after 24 h, 48 h, 72 h and 96 h (Example 22)
[22] = system: PANC-1 (human pancreatic carcinoma) cells; test: Impedance-based viability assay (xCELLigence SP), long treatment; assay type: cell-based; settings: 72 h, read-out: cytotoxicity expressed in IC50, PANC-1
Text: (Gibco®/Invitrogen Corporation, New York, NY, USA).
Data obtained from each experiment represent mathematical averages.

## Nc1cccc(CN2C(=O)C3=C(CCN(Cc4cc(F)cc(F)c4)C3)N3CCN=C23)c1 [I/126, 4-(3-Aminobenzyl)-7-(3,5-difluorobenzyl)-2,4,6,7,8,9-hexahydroimidazo[1,2-a]pyrido[3,4-e]pyrimidin-5(1H)-one]
other
  melting point: 114.5 °C
[1]
  IC50: > 300 nM
[2]
  IC50: 103 nM
[3]
  IC50: 288 nM
[4]
  IC50: 290 nM
[5]
  IC50: 269 nM

## O=C1C2=C(CCN(Cc3cc(F)cc(F)c3)C2)N2CCN=C2N1[C@@H](CO)c1ccc(F)cc1 [I/129 (R)]
other
  melting point: 76 °C
[6]
  IC50: 15 nM

## O=C1C2=C(CCN(Cc3cc(F)cc(F)c3)C2)N2CCN=C2N1[C@H](CO)c1ccc(F)cc1 [I/129 (S)]
[6]
  IC50: 265 nM
[1]
  IC50: > 300 nM
[2]
  IC50: 120 nM
[3]
  IC50: > 300 nM
[4]
  IC50: 150 nM
[5]
  IC50: 300 nM

## [N-]=[N+]=Nc1cccc(CN2C(=O)C3=C(CCN(Cc4cc(F)cc(F)c4)C3)N3CCN=C23)c1 [I/127, 4-(3-Azidobenzyl)-7-(3,5-difluorobenzyl)-2,4,6,7,8,9-hexahydroimidazo[1,2-a]pyrido[3,4-e]pyrimidin-5(1H)-one]
other
  melting point: 158 °C
[1]
  IC50: 21 nM
[2]
  IC50: 10 nM
[3]
  IC50: 16 nM
[4]
  IC50: 16 nM
[5]
  IC50: 15 nM

## O=C1C2=C(CCN(Cc3cccc(F)c3)C2)N2CCN=C2N1Cc1ccc(F)cc1 [I/6, reference compound]
[7]; 3.7 nM
  EBC-1 (lung, squamous cell carcinoma) cell viability (% of control): 101.0 ± 19.5 % of control
[7]; 11.1 nM
  EBC-1 (lung, squamous cell carcinoma) cell viability (% of control): 101.7 ± 3.3 % of control
[7]; 100 nM
  EBC-1 (lung, squamous cell carcinoma) cell viability (% of control): 25.1 ± 0.3 % of control
[7]; 300 nM
  EBC-1 (lung, squamous cell carcinoma) cell viability (% of control): 24.1 ± 2.4 % of control
[8]; 3.7 nM
  MIA PaCa-2 (pancreas, carcinoma) cell viability (% of control): 101.6 ± 10.8 % of control
[8]; 11.1 nM
  MIA PaCa-2 (pancreas, carcinoma) cell viability (% of control): 110.7 ± 6.4 % of control
[8]; 100 nM
  MIA PaCa-2 (pancreas, carcinoma) cell viability (% of control): 21.6 ± 9.1 % of control
[8]; 300 nM
  MIA PaCa-2 (pancreas, carcinoma) cell viability (% of control): 19.5 ± 7.5 % of control
[9]; 3.7 nM
  PC-3 (prostate, adenocarcinoma) cell viability (% of control): 103.6 ± 14.4 % of control
[9]; 11.1 nM
  PC-3 (prostate, adenocarcinoma) cell viability (% of control): 108.7 ± 7.7 % of control
[9]; 100 nM
  PC-3 (prostate, adenocarcinoma) cell viability (% of control): 35.3 ± 0.5 % of control
[9]; 300 nM
  PC-3 (prostate, adenocarcinoma) cell viability (% of control): 34.1 ± 2.0 % of control
[10]; 3.7 nM
  DU 145 cell viability: 96.8 ± 3.7 % of control
[10]; 11.1 nM
  DU 145 cell viability: 93.4 ± 2.2 % of control
[10]; 100 nM
  DU 145 cell viability: 8.0 ± 1.4 % of control
[10]; 300 nM
  DU 145 cell viability: 7.9 ± 1.6 % of control
[11]; 3.7 nM
  LNCaP cell viability: 101.8 ± 5.6 % of control
[11]; 11.1 nM
  LNCaP cell viability: 97.9 ± 7.3 % of control
[11]; 100 nM
  LNCaP cell viability: 15.4 ± 2.0 % of control
[11]; 300 nM
  LNCaP cell viability: 14.4 ± 0.7 % of control
[12]; 3.7 nM
  Capan-1 (pancreas, adenocarcinoma) cell viability (% of control): 105.9 ± 7.8 % of control
[12]; 11.1 nM
  Capan-1 (pancreas, adenocarcinoma) cell viability (% of control): 106.0 ± 8.0 % of control
[12]; 100 nM
  Capan-1 (pancreas, adenocarcinoma) cell viability (% of control): 40.1 ± 3.7 % of control
[12]; 300 nM
  Capan-1 (pancreas, adenocarcinoma) cell viability (% of control): 37.4 ± 3.5 % of control
[13]; 3.7 nM
  Panc-1 (pancreas, carcinoma) cell viability (% of control): 107.8 ± 16.0 % of control
[13]; 11.1 nM
  Panc-1 (pancreas, carcinoma) cell viability (% of control): 109.1 ± 4.2 % of control
[13]; 100 nM
  Panc-1 (pancreas, carcinoma) cell viability (% of control): 57.1 ± 0.1 % of control
[13]; 300 nM
  Panc-1 (pancreas, carcinoma) cell viability (% of control): 57.2 ± 3.2 % of control
[14]; 3.7 nM
  MDA-MB-453 (breast, carcinoma) cell viability (% of control): 113.6 ± 9.8 % of control
[14]; 11.1 nM
  MDA-MB-453 (breast, carcinoma) cell viability (% of control): 103.7 ± 10.4 % of control
[14]; 100 nM
  MDA-MB-453 (breast, carcinoma) cell viability (% of control): 33.9 ± 1.3 % of control
[14]; 300 nM
  MDA-MB-453 (breast, carcinoma) cell viability (% of control): 32.0 ± 1.1 % of control
[15]; 3.7 nM
  SCC-25 (tongue, squamous cell carcinoma) cell viability (% of control): 101.8 ± 4.3 % of control
[15]; 11.1 nM
  SCC-25 (tongue, squamous cell carcinoma) cell viability (% of control): 96.2 ± 4.8 % of control
[15]; 100 nM
  SCC-25 (tongue, squamous cell carcinoma) cell viability (% of control): 42.5 ± 1.8 % of control
[15]; 300 nM
  SCC-25 (tongue, squamous cell carcinoma) cell viability (% of control): 41.5 ± 3.1 % of control
[16]; 3.7 nM
  FaDu (pharynx, squamous cell carcinoma) cell viability (% of control): 97.9 ± 3.9 % of control
[16]; 11.1 nM
  FaDu (pharynx, squamous cell carcinoma) cell viability (% of control): 97.8 ± 5.2 % of control
[16]; 100 nM
  FaDu (pharynx, squamous cell carcinoma) cell viability (% of control): 27.3 ± 5.2 % of control
[16]; 300 nM
  FaDu (pharynx, squamous cell carcinoma) cell viability (% of control): 25.2 ± 4.6 % of control
[17]; 3.7 nM
  Detroit 562 (pharynx, carcinoma) cell viability (% of control): 99.8 ± 6.4 % of control
[17]; 11.1 nM
  Detroit 562 (pharynx, carcinoma) cell viability (% of control): 50.9 ± 15.2 % of control
[17]; 100 nM
  Detroit 562 (pharynx, carcinoma) cell viability (% of control): 31.6 ± 2.1 % of control
[17]; 300 nM
  Detroit 562 (pharynx, carcinoma) cell viability (% of control): 33.0 ± 3.4 % of control
[18]; 3.7 nM
  MDA-MB-231 (breast, adenocarcinoma) cell viability (% of control): 100.5 ± 5.4 % of control
[18]; 11.1 nM
  MDA-MB-231 (breast, adenocarcinoma) cell viability (% of control): 99.4 ± 4.1 % of control
[18]; 100 nM
  MDA-MB-231 (breast, adenocarcinoma) cell viability (% of control): 57.7 ± 3.8 % of control
[18]; 300 nM
  MDA-MB-231 (breast, adenocarcinoma) cell viability (% of control): 57.4 ± 1.7 % of control
[19]
  IC50: < 100 nM
[20]
  IC50: < 100 nM
[21]; PANC-1, 72 h, read-out: IC50 (72 h) [nM]
  IC50: 126 ± 5.96 nM
[21]; PANC-1, 96 h, read-out: IC50 (96 h) [nM]
  IC50: 75.5 ± 6.76 nM
[22]
  IC50: < 100 nM

## O=C1C2=C(CCN(Cc3cc(F)cc(F)c3)C2)N2CCN=C2N1Cc1cccc(Cl)c1 [I/125, 4-(3-Chlorobenzyl)-7-(3,5-difluorobenzyl)-2,4,6,7,8,9-hexahydroimidazo[1,2-a]pyrido[3,4-e]pyrimidin-5(1H)-one]
other
  melting point: 204.8 °C

From patent publication US20230295162A1 (EÖTVÖS LORÁND TUDOMÁNYEGYETEM, priority 2020, published 2023)
